Measured values reported in ChEMBL document CHEMBL4024727, “Synthesis and antimycobacterial screening of new thiazolyl-oxazole derivatives” (Eur J Med Chem, 2017).
In brackets after ≈: the same amount, converted by molar mass.

Legend:
Staphylococcus aureus [1] = test: Growth inhibition of Staphylococcus aureus NCIM 2602 at 30 ug/ml measured after 12 hrs relative to control; format: functional; details: NCIM 2602, 12 h, read-out: GI
Staphylococcus aureus [2] = test: Growth inhibition of Staphylococcus aureus NCIM 2602 at 10 ug/ml measured after 12 hrs relative to control; format: functional; details: NCIM 2602, 12 h, read-out: GI
Bacillus subtilis [3] = test: Antibacterial activity against Bacillus subtilis NCIM 2162 measured after 12 hrs; format: functional; details: NCIM 2162, 12 h
Bacillus subtilis [4] = test: Growth inhibition of Bacillus subtilis NCIM 2162 at 1 ug/ml measured after 12 hrs relative to control; format: functional; details: NCIM 2162, 12 h, read-out: GI
[5] = test system: Mycobacterium tuberculosis; test: Growth inhibition of Mycobacterium tuberculosis H37Ra ATCC 25177 at 3 ug/ml by XTT dye based two-fold dilution method relative to control; format: functional; details: read-out: GI
Escherichia coli [6] = test: Growth inhibition of Escherichia coli NCIM 2576 at 10 ug/ml measured after 8 hrs relative to control; format: functional; details: NCIM 2576, 8 h, read-out: GI
Pseudomonas fluorescens [7] = test: Growth inhibition of Pseudomonas fluorescens NCIM 2059 at 1 ug/ml measured after 8 hrs relative to control; format: functional; details: NCIM 2059, 8 h, read-out: GI
Bacillus subtilis [8] = test: Growth inhibition of Bacillus subtilis NCIM 2162 at 30 ug/ml measured after 12 hrs relative to control; format: functional; details: NCIM 2162, 12 h, read-out: GI
[9] = test system: Mycobacterium tuberculosis; test: Growth inhibition of Mycobacterium tuberculosis H37Ra ATCC 25177 at 10 ug/ml by XTT dye based two-fold dilution method relative to control; format: functional; details: read-out: GI
Pseudomonas fluorescens [10] = test: Growth inhibition of Pseudomonas fluorescens NCIM 2059 at 10 ug/ml measured after 8 hrs relative to control; format: functional; details: NCIM 2059, 8 h, read-out: GI
[11] = test system: Mycobacterium tuberculosis; test: Antitubercular activity against Mycobacterium tuberculosis H37Ra ATCC 25177 dormant stage by XTT dye based two-fold dilution method; format: functional
Pseudomonas fluorescens [12] = test: Growth inhibition of Pseudomonas fluorescens NCIM 2059 at 30 ug/ml measured after 8 hrs relative to control; format: functional; details: NCIM 2059, 8 h, read-out: GI
Escherichia coli [13] = test: Antibacterial activity against Escherichia coli NCIM 2576 measured after 8 hrs; format: functional; details: NCIM 2576, 8 h
Pseudomonas fluorescens [14] = test: Antibacterial activity against Pseudomonas fluorescens NCIM 2059 measured after 8 hrs; format: functional; details: NCIM 2059, 8 h
[15] = test system: Mycobacterium tuberculosis; test: Growth inhibition of Mycobacterium bovis BCG ATCC 35743 at 30 ug/ml by nitrate reductase based two-fold dilution assay relative to control; format: functional; details: BCG str. ATCC 35743, read-out: GI
[16] = test system: Mycobacterium tuberculosis; test: Growth inhibition of Mycobacterium bovis BCG ATCC 35743 at 10 ug/ml by nitrate reductase based two-fold dilution assay relative to control; format: functional; details: BCG str. ATCC 35743, read-out: GI
Escherichia coli [17] = test: Growth inhibition of Escherichia coli NCIM 2576 at 1 ug/ml measured after 8 hrs relative to control; format: functional; details: NCIM 2576, 8 h, read-out: GI
Staphylococcus aureus [18] = test: Antibacterial activity against Staphylococcus aureus NCIM 2602 measured after 12 hrs; format: functional; details: NCIM 2602, 12 h
[19] = test system: Mycobacterium tuberculosis; test: Growth inhibition of Mycobacterium bovis BCG ATCC 35743 at 1 ug/ml by nitrate reductase based two-fold dilution assay relative to control; format: functional; details: BCG str. ATCC 35743, read-out: GI
[20] = test system: Mycobacterium tuberculosis; test: Growth inhibition of Mycobacterium tuberculosis H37Ra ATCC 25177 at 30 ug/ml by XTT dye based two-fold dilution method relative to control; format: functional; details: read-out: GI
Bacillus subtilis [21] = test: Growth inhibition of Bacillus subtilis NCIM 2162 at 10 ug/ml measured after 12 hrs relative to control; format: functional; details: NCIM 2162, 12 h, read-out: GI
Staphylococcus aureus [22] = test: Growth inhibition of Staphylococcus aureus NCIM 2602 at 1 ug/ml measured after 12 hrs relative to control; format: functional; details: NCIM 2602, 12 h, read-out: GI
Escherichia coli [23] = test: Growth inhibition of Escherichia coli NCIM 2576 at 30 ug/ml measured after 8 hrs relative to control; format: functional; details: NCIM 2576, 8 h, read-out: GI
[24] = test system: Mycobacterium tuberculosis; test: Antitubercular activity against Mycobacterium bovis BCG ATCC 35743 dormant stage by nitrate reductase based two-fold dilution assay; format: functional; details: BCG str. ATCC 35743
HeLa = test: Growth inhibition of human HeLa cells by MTT assay; format: cell-based; details: hela
A549 = test: Growth inhibition of human A549 cells by MTT assay; format: cell-based; details: a549
PANC-1 = test: Growth inhibition of human PANC1 cells by MTT assay; format: cell-based; details: panc-1

SMILES	inhibition of growth at 30 µg/mL (Staphylococcus aureus [1]) [%]	inhibition of growth at 10 µg/mL (Staphylococcus aureus [2]) [%]	MIC (Bacillus subtilis [3]) [µM]	inhibition of growth at 1 µg/mL (Bacillus subtilis [4]) [%]	inhibition of growth at 3 µg/mL [5] [%]	inhibition of growth at 10 µg/mL (Escherichia coli [6]) [%]	inhibition of growth at 1 µg/mL (Pseudomonas fluorescens [7]) [%]	inhibition of growth at 30 µg/mL (Bacillus subtilis [8]) [%]	inhibition of growth at 10 µg/mL [9] [%]	inhibition of growth at 10 µg/mL (Pseudomonas fluorescens [10]) [%]	IC50 [11] [µM]	MIC90 [11] [µM]	inhibition of growth at 30 µg/mL (Pseudomonas fluorescens [12]) [%]	MIC (Escherichia coli [13]) [µM]	MIC (Pseudomonas fluorescens [14]) [µM]	inhibition of growth at 30 µg/mL [15] [%]	inhibition of growth at 10 µg/mL [16] [%]	inhibition of growth at 1 µg/mL (Escherichia coli [17]) [%]	MIC (Staphylococcus aureus [18]) [µM]	inhibition of growth at 1 µg/mL [19] [%]	also measured
Cc1ccc(-c2nc(-c3oc(-c4ccccc4)nc3C)cs2)cc1	31.5	14.9	> 100	3.92	13	11.1	2.57	33.4	15	18.6	> 100	> 100	30.8	> 100	> 100	34	34	7.19	> 100	25	inhibition of growth at 30 µg/mL [20]: 17%; inhibition of growth at 10 µg/mL (Bacillus subtilis [21]): 15.9%; inhibition of growth at 1 µg/mL (Staphylococcus aureus [22]): 5.6%; inhibition of growth at 30 µg/mL (Escherichia coli [23]): 33.8%; IC50 [24]: > 100 µM; MIC90 [24]: > 100 µM
CC(=O)O[C@H]1C(=O)[C@@]2(C)[C@H]([C@H](OC(=O)c3ccccc3)[C@]3(O)C[C@H](OC(=O)[C@H](O)[C@@H](NC(=O)c4ccccc4)c4ccccc4)C(C)=C1C3(C)C)[C@]1(OC(C)=O)CO[C@@H]1C[C@@H]2O [PACLITAXEL]																					GI90 (HeLa): 0.075 µg/mL (≈ 0.0878 µM); GI90 (A549): 0.0706 µg/mL (≈ 0.0827 µM); GI90 (PANC-1): 5.715 µg/mL (≈ 6.69 µM)
Cc1nc(-c2ccc(F)cc2)oc1-c1csc(-c2ccc(F)c(Cl)c2)n1	63	55.2	> 100	41.2	6	55.9	44.3	69.4	11	56.2	> 100	> 100	65.8	> 100	> 100	29	23	45.7	> 100	21	inhibition of growth at 30 µg/mL [20]: 13%; inhibition of growth at 10 µg/mL (Bacillus subtilis [21]): 55.6%; inhibition of growth at 1 µg/mL (Staphylococcus aureus [22]): 45.7%; inhibition of growth at 30 µg/mL (Escherichia coli [23]): 64.2%; IC50 [24]: > 100 µM; MIC90 [24]: > 100 µM
Cc1nc(-c2ccc(F)cc2)oc1-c1csc(-c2ccc(Cl)cc2)n1	25.8	19.5	> 100	4.2	3	10.4	0.52	20.5	4	20.7	> 100	> 100	21.5	> 100	> 100	33	29	5.86	> 100	25	inhibition of growth at 30 µg/mL [20]: 13%; inhibition of growth at 10 µg/mL (Bacillus subtilis [21]): 12.9%; inhibition of growth at 1 µg/mL (Staphylococcus aureus [22]): 8.6%; inhibition of growth at 30 µg/mL (Escherichia coli [23]): 24.9%; IC50 [24]: > 100 µM; MIC90 [24]: > 100 µM
Cc1nc(-c2ccc(F)cc2)oc1-c1csc(-c2ccccc2)n1	58.8	40.7	> 100	21	13	47.8	22.4	53.3	13	41.9	> 100	> 100	53.1	> 100	> 100	33	32	21.3	> 100	28	inhibition of growth at 30 µg/mL [20]: 31%; inhibition of growth at 10 µg/mL (Bacillus subtilis [21]): 47.8%; inhibition of growth at 1 µg/mL (Staphylococcus aureus [22]): 24%; inhibition of growth at 30 µg/mL (Escherichia coli [23]): 50.7%; IC50 [24]: > 100 µM; MIC90 [24]: > 100 µM
Cc1nc(-c2ccc(F)cc2)oc1-c1csc(Cc2ccc(Cl)cc2)n1	21.1	14.1	> 100	9.95	9	16.1	4.37	27.6	25	20.1	> 100	> 100	20.9	> 100	> 100	42	32	7.55	> 100	24	inhibition of growth at 30 µg/mL [20]: 39%; inhibition of growth at 10 µg/mL (Bacillus subtilis [21]): 13.9%; inhibition of growth at 1 µg/mL (Staphylococcus aureus [22]): 5.76%; inhibition of growth at 30 µg/mL (Escherichia coli [23]): 21%; IC50 [24]: > 100 µM; MIC90 [24]: > 100 µM
Cc1nc(-c2ccccc2)oc1-c1csc(-c2ccc(F)c(Cl)c2)n1	88.5	80	> 100	62	19	74.3	69.8	85.6	21	77.1	> 100	> 100	89.6	> 100	> 100	34	33	65	> 100	16	inhibition of growth at 30 µg/mL [20]: 30%; inhibition of growth at 10 µg/mL (Bacillus subtilis [21]): 80.8%; inhibition of growth at 1 µg/mL (Staphylococcus aureus [22]): 70.9%; inhibition of growth at 30 µg/mL (Escherichia coli [23]): 88%; IC50 [24]: > 100 µM; MIC90 [24]: > 100 µM
